≈ marks a conversion by molar mass, not a printed value.
Tests used:
Format in all cases: functional
Staphylococcus aureus = assay: Minimum Inhibitory concentration against Staphylococcus aureus (CECT240)
Escherichia coli = assay: Minimum inhibitory concentration against Escherichia coli (CECT405)
Pseudomonas aeruginosa = assay: Minimum inhibitory concentration against Pseudomonas aeruginosa (CECT108)
Proteus mirabilis = assay: Minimum inhibitory concentration against Proteus mirabilis (CECT170)

Compound	MIC90 (Staphylococcus aureus) [µg/mL]	MIC90 (Escherichia coli) [µg/mL]	MIC90 (Pseudomonas aeruginosa) [µg/mL]	MIC90 (Proteus mirabilis) [µg/mL]
CC(=O)Nc1cc(C)cc(/N=N/c2cc([N+](=O)[O-])cc([N+](=O)[O-])c2O)c1O	130 (≈ 346 µM)	130 (≈ 346 µM)	130 (≈ 346 µM)	130 (≈ 346 µM)
O=C(N[C@H](CO)[C@H](O)c1ccc([N+](=O)[O-])cc1)C(Cl)Cl [CHLORAMPHENICOL]	100 (≈ 309 µM)	10 (≈ 30.9 µM)	100 (≈ 309 µM)	100 (≈ 309 µM)
COc1cc2ccc(=O)oc2c(O[C@@H]2O[C@H](CO)[C@@H](O)[C@H](O)[C@H]2O)c1O [FRAXINE]	1450 (≈ 3920 µM)	1450 (≈ 3920 µM)	1450 (≈ 3920 µM)	1450 (≈ 3920 µM)
COc1ccc([C@@H]2CC(=O)c3c(O)cc(O[C@@H]4O[C@H](CO[C@@H]5O[C@@H](C)[C@H](O)[C@@H](O)[C@H]5O)[C@@H](O)[C@H](O)[C@H]4O)cc3O2)cc1O [HESPERIDIN]	8 (≈ 13.1 µM)		25 (≈ 40.9 µM)	
O=c1c(O)c(-c2ccc(O)cc2O)oc2cc(O)cc(O)c12 [MORIN]	120 (≈ 397 µM)	1380 (≈ 4570 µM)	120 (≈ 397 µM)	120 (≈ 397 µM)
COc1ccc([C@@H]2CC(=O)c3c(O)cc(O[C@@H]4O[C@H](CO)[C@@H](O)[C@H](O)[C@H]4O[C@@H]4O[C@@H](C)[C@H](O)[C@@H](O)[C@H]4O)cc3O2)cc1O [NEOHESPERIDIN]	300 (≈ 491 µM)	300 (≈ 491 µM)	300 (≈ 491 µM)	300 (≈ 491 µM)
O=C(O)c1cccnc1Nc1cccc(C(F)(F)F)c1 [NIFLUMIC ACID]	160 (≈ 567 µM)	1800 (≈ 6380 µM)		1800 (≈ 6380 µM)
SILYMARIN	80		200	700

Source: ChEMBL document CHEMBL1133303, “Molecular topology: a useful tool for the search of new antibacterials” (2000)
